{"source": "patent US10168342B2", "about": "“Lipid probes and uses thereof” (THE SCRIPPS RESEARCH INSTITUTE, priority 2015, dated 2019)", "key": {"[1]": {"biological_target": "T1, AEA-DA lipid probe targets in Neuro2a cells (Mus musculus, UniProt P17439)", "T1 sequence (P17439 20-515)": "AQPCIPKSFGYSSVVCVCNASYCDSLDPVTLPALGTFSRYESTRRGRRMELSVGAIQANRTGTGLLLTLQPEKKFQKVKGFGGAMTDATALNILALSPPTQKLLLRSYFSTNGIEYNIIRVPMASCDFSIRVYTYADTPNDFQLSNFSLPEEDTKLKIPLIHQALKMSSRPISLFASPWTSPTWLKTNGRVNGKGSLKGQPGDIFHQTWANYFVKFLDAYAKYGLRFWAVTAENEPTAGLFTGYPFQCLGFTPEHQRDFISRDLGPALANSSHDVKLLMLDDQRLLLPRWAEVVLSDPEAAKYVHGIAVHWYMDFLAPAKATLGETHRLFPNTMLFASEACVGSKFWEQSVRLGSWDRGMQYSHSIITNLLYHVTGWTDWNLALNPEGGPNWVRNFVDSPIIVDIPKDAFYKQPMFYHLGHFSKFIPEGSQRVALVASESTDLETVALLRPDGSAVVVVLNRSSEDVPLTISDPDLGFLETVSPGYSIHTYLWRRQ"}, "[2]": {"biological_target": "T2, AEA-DA lipid probe targets in Neuro2a cells (Mus musculus, UniProt Q99J56)", "T2 sequence (Q99J56 1-251)": "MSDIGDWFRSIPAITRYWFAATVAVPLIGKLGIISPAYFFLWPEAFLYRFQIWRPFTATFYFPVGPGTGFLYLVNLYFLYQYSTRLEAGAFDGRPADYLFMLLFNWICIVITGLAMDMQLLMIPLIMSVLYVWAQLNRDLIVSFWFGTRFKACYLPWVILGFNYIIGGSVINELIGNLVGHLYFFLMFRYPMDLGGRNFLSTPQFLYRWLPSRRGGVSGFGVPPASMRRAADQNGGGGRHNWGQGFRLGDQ"}, "[3]": {"biological_target": "T3, AEA-DA lipid probe targets in Neuro2a cells (Mus musculus, UniProt O08579)", "T3 sequence (O08579 1-259)": "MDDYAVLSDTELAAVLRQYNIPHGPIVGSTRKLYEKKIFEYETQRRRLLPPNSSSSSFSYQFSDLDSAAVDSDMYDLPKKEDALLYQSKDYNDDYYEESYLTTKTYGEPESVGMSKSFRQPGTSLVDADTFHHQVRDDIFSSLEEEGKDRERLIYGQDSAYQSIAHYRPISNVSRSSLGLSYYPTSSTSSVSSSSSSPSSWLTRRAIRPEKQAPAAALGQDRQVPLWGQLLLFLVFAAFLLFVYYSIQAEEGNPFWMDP", "details": "for SILAC ratio, EMD (O08579): Neuro2a cells, AEA-DA probe"}, "[4]": {"biological_target": "T4, AEA-DA lipid probe targets in Neuro2a cells (Mus musculus, UniProt Q9CPQ8)", "T4 sequence (Q9CPQ8 1-103)": "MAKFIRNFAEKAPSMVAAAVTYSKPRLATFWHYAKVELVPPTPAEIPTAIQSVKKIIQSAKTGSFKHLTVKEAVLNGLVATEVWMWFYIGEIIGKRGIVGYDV"}, "[5]": {"biological_target": "T5, AEA-DA lipid probe targets in Neuro2a cells (Mus musculus, UniProt Q9CR67)", "T5 sequence (Q9CR67 1-247)": "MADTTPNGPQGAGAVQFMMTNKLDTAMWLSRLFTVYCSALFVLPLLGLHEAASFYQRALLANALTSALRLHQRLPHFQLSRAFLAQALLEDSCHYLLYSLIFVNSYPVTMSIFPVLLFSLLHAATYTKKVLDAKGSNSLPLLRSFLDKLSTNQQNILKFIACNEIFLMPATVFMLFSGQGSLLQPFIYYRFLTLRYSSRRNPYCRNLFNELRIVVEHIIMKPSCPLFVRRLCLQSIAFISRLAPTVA"}, "[6]": {"biological_target": "T6, AEA-DA lipid probe targets in Neuro2a cells (Mus musculus, UniProt P32037)", "T6 sequence (P32037 1-493)": "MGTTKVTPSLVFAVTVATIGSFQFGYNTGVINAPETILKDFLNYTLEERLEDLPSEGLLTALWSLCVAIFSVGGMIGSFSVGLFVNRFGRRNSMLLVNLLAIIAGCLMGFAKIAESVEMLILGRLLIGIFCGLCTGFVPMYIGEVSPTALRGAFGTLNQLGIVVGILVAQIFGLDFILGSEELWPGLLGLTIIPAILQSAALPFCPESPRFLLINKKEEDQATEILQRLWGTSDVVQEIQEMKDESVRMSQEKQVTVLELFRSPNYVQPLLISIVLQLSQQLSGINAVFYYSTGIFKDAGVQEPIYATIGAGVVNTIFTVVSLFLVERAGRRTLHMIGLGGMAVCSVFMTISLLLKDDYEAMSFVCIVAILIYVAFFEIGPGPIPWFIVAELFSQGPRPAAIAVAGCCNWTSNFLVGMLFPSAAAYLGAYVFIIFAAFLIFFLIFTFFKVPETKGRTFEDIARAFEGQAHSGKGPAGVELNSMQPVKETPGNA"}, "[7]": {"biological_target": "T7, AEA-DA lipid probe targets in Neuro2a cells (Mus musculus, UniProt P81117)", "T7 sequence (P81117 25-420)": "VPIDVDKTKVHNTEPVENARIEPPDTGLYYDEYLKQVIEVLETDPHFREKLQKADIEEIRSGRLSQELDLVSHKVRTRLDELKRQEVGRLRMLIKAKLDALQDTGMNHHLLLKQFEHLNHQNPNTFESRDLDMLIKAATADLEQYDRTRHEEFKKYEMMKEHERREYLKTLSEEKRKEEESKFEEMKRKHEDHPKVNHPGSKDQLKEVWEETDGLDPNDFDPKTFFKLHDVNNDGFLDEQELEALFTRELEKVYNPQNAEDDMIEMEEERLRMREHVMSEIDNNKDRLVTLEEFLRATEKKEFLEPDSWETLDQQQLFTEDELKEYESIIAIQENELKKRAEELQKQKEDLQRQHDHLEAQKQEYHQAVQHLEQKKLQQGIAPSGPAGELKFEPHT"}, "[8]": {"biological_target": "AEA-DA lipid probe targets in Neuro2a cells (Mus musculus, UniProt P20152)", "sequence (P20152 whole entry)": "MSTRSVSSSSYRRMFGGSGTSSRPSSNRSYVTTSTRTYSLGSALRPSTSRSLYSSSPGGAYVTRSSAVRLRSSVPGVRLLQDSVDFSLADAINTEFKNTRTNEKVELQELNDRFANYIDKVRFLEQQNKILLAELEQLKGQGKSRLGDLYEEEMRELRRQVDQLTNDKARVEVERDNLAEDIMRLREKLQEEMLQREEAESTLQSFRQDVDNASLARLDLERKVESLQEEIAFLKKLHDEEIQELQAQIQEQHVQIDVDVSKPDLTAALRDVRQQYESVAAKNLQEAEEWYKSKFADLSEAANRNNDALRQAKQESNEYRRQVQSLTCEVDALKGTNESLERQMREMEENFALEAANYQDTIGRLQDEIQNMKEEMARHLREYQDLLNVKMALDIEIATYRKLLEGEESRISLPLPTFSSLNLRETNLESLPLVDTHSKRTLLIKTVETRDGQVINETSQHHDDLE"}}, "note": "Read-outs that look alike come from different tables or passages of the source."}
{"smiles": "C=CCN(C)CCCCCCOc1ccc(C(=O)c2ccc(Br)cc2)c(F)c1", "note": "[Ro 48-8071, reference compound]", "values": [{"measurement": "SILAC ratio Gba", "setting": "[1]; competitor 25 μM", "value": 0.7}, {"measurement": "SILAC ratio, Derl1", "setting": "[2]; competitor 25 μM", "value": 1.1}, {"measurement": "SILAC ratio, EMD (O08579)", "setting": "[3]; competitor 25 μM", "value": 1.3}, {"measurement": "SILAC ratio, Emd", "setting": "[3]; competitor 25 μM", "value": 1.3}, {"measurement": "SILAC ratio Atp5l", "setting": "[4]; competitor 25 μM", "value": 1.0}, {"measurement": "SILAC ratio, Tmem33", "setting": "[5]; competitor 25 μM", "value": 1.1}, {"measurement": "SILAC ratio, Slc2a3", "setting": "[6]; competitor 25 μM", "value": 1.0}, {"measurement": "SILAC ratio, Nucb2", "setting": "[7]; competitor 25 μM", "value": 0.8}, {"measurement": "SILAC ratio Vim", "setting": "[8]; competitor 25 μM", "value": 0.8}]}
{"smiles": "CN1CCN(C(=O)c2[nH]c3ccc([N+](=O)[O-])cc3c2-c2ccccc2)CC1", "note": "[MJN228, (4-Methylpiperazin-1-yl)(5-nitro-3-phenyl-1H-indol-2-yl)methanone]", "values": [{"measurement": "SILAC ratio Gba", "setting": "[1]; competitor 10 μM", "value": 2.2}, {"measurement": "SILAC ratio, Derl1", "setting": "[2]; competitor 10 μM", "value": 1.2}, {"measurement": "SILAC ratio, Derl1", "setting": "[2]; competitor 25 μM", "value": 1.4}, {"measurement": "SILAC ratio, Derl1", "setting": "[2]; competitor 50 μM", "value": 1.7}, {"measurement": "SILAC ratio, Derl1", "setting": "[2]; competitor 100 μM", "value": 1.8}, {"measurement": "SILAC ratio, EMD (O08579)", "setting": "[3]; competitor 25 μM", "value": 2.4}, {"measurement": "SILAC ratio, Emd", "setting": "[3]; competitor 10 μM", "value": 1.8}, {"measurement": "SILAC ratio, Emd", "setting": "[3]; competitor 25 μM", "value": 2.4}, {"measurement": "SILAC ratio, Emd", "setting": "[3]; competitor 50 μM", "value": 2.5}, {"measurement": "SILAC ratio, Emd", "setting": "[3]; competitor 100 μM", "value": 4.5}, {"measurement": "SILAC ratio Atp5l", "setting": "[4]; competitor 10 μM", "value": 1.5}, {"measurement": "SILAC ratio Atp5l", "setting": "[4]; competitor 25 μM", "value": 1.5}, {"measurement": "SILAC ratio Atp5l", "setting": "[4]; competitor 50 μM", "value": 1.4}, {"measurement": "SILAC ratio Atp5l", "setting": "[4]; competitor 100 μM", "value": 1.3}, {"measurement": "SILAC ratio, Tmem33", "setting": "[5]; competitor 10 μM", "value": 1.3}, {"measurement": "SILAC ratio, Tmem33", "setting": "[5]; competitor 25 μM", "value": 1.5}, {"measurement": "SILAC ratio, Tmem33", "setting": "[5]; competitor 50 μM", "value": 1.5}, {"measurement": "SILAC ratio, Tmem33", "setting": "[5]; competitor 100 μM", "value": 2.0}, {"measurement": "SILAC ratio, Slc2a3", "setting": "[6]; competitor 10 μM", "value": 1.2}, {"measurement": "SILAC ratio, Slc2a3", "setting": "[6]; competitor 25 μM", "value": 1.4}, {"measurement": "SILAC ratio, Slc2a3", "setting": "[6]; competitor 50 μM", "value": 1.2}, {"measurement": "SILAC ratio, Slc2a3", "setting": "[6]; competitor 100 μM", "value": 1.2}, {"measurement": "SILAC ratio, Nucb2", "setting": "[7]; competitor 10 μM", "value": 1.4}, {"measurement": "SILAC ratio, Nucb2", "setting": "[7]; competitor 25 μM", "value": 1.6}, {"measurement": "SILAC ratio, Nucb2", "setting": "[7]; competitor 50 μM", "value": 2.1}, {"measurement": "SILAC ratio, Nucb2", "setting": "[7]; competitor 100 μM", "value": 2.9}, {"measurement": "SILAC ratio Vim", "setting": "[8]; competitor 10 μM", "value": 1.2}, {"measurement": "SILAC ratio Vim", "setting": "[8]; competitor 25 μM", "value": 1.2}, {"measurement": "SILAC ratio Vim", "setting": "[8]; competitor 50 μM", "value": 0.9}, {"measurement": "SILAC ratio Vim", "setting": "[8]; competitor 100 μM", "value": 1.0}]}
{"smiles": "CCCCC/C=C\\C/C=C\\C/C=C\\C/C=C\\CCCC(=O)NCCO", "note": "[AEA, anandamide, reference compound]", "values": [{"measurement": "SILAC ratio Gba", "setting": "[1]; competitor 200 μM", "value": 1.5}, {"measurement": "SILAC ratio, Derl1", "setting": "[2]; competitor 200 μM", "value": 1.8}, {"measurement": "SILAC ratio, EMD (O08579)", "setting": "[3]; competitor 200 μM", "value": 1.4}, {"measurement": "SILAC ratio, Emd", "setting": "[3]; competitor 200 μM", "value": 1.4}, {"measurement": "SILAC ratio Atp5l", "setting": "[4]; competitor 200 μM", "value": 1.3}, {"measurement": "SILAC ratio, Tmem33", "setting": "[5]; competitor 200 μM", "value": 1.8}, {"measurement": "SILAC ratio, Slc2a3", "setting": "[6]; competitor 200 μM", "value": 1.0}, {"measurement": "SILAC ratio, Nucb2", "setting": "[7]; competitor 200 μM", "value": 1.5}, {"measurement": "SILAC ratio Vim", "setting": "[8]; competitor 200 μM", "value": 0.9}]}
{"smiles": "CN1CCN(C(=O)c2c(-c3ccccc3)c3cc([N+](=O)[O-])ccc3n2C)CC1", "note": "[KML110, (1-Methyl-5-nitro-3-phenyl-1H-indol-2-yl)(4-methylpiperazin-1-yl)methanone]", "values": [{"measurement": "SILAC ratio Gba", "setting": "[1]; competitor 25 μM", "value": 2.4}, {"measurement": "SILAC ratio, Derl1", "setting": "[2]; competitor 25 μM", "value": 1.2}, {"measurement": "SILAC ratio, Emd", "setting": "[3]; competitor 25 μM", "value": 1.7}, {"measurement": "SILAC ratio Atp5l", "setting": "[4]; competitor 25 μM", "value": 1.2}, {"measurement": "SILAC ratio, Tmem33", "setting": "[5]; competitor 25 μM", "value": 1.4}, {"measurement": "SILAC ratio, Slc2a3", "setting": "[6]; competitor 25 μM", "value": 1.2}, {"measurement": "SILAC ratio, Nucb2", "setting": "[7]; competitor 25 μM", "value": 2.0}, {"measurement": "SILAC ratio Vim", "setting": "[8]; competitor 25 μM", "value": 1.2}]}
{"smiles": "O=C(/C=C/c1cccnc1)NCCCCC1CCN(C(=O)c2ccccc2)CC1", "note": "[FK-866, reference compound]", "values": [{"measurement": "SILAC ratio Gba", "setting": "[1]; competitor 25 μM", "value": 1.0}, {"measurement": "SILAC ratio, Derl1", "setting": "[2]; competitor 25 μM", "value": 1.3}, {"measurement": "SILAC ratio, EMD (O08579)", "setting": "[3]; competitor 25 μM", "value": 1.4}, {"measurement": "SILAC ratio, Emd", "setting": "[3]; competitor 25 μM", "value": 1.4}, {"measurement": "SILAC ratio Atp5l", "setting": "[4]; competitor 25 μM", "value": 1.1}, {"measurement": "SILAC ratio, Tmem33", "setting": "[5]; competitor 25 μM", "value": 1.2}, {"measurement": "SILAC ratio, Slc2a3", "setting": "[6]; competitor 25 μM", "value": 1.1}, {"measurement": "SILAC ratio, Nucb2", "setting": "[7]; competitor 25 μM", "value": 1.1}, {"measurement": "SILAC ratio Vim", "setting": "[8]; competitor 25 μM", "value": 1.2}]}
